Source: patent publication US9056108B2, “Method of treating atrial fibrillation” (Gilead Sciences, Inc., priority 2009, dated 2015)

Tests used:
[1] = system: isolated canine coronary-perfused right atria; test: Electrophysiology in isolated coronary-perfused canine right atrial preparations; conditions: for Shortest S1-S1 (shortest CL permitting 1:1 activation) / APD90 / ERP: ranolazine 5 μM, dronedarone 10 μM; for APD90 / ERP: pectinate muscle, CL of 500 ms
Protocol: Experiments were performed using isolated coronary-perfused canine right atrial (RA) and left ventricular (LV) preparations (≈3×1.5×1 cm). Isolation and perfusion of the preparations were as previously described.^9, 15, 16 Briefly, preparations were dissected from hearts removed from anesthetized (sodium pentobarbital) adult mongrel dogs (20-30 kg). Unfolded RA with attached rim of the right ventricle was cannulated and perfused with cold cardioplegic solution (4-8° C.) through the ostium of the right coronary artery; the LV wedge was perfused through a diagonal branch of the left anterior descending coronary artery. Unperfused tissue was removed with a razor blade. Cut ventricular and atrial branches were ligated using silk thread. The preparations were then transferred to a temperature-controlled bath and arterially-perfused with Tyrode's solution by use of a roller pump. The composition of the Tyrode's solution was (in mM): NaCl 129, KCl 4, NaH2PO4 0.9, NaHCO3 20, CaCl2 1.8, MgSO4 0.5, and D-glucose 5.5, buffered with 95% O2 and 5% CO2 (37±0.5° C., pH=7.35)
Transmembrane action potential (AP) recordings were obtained using floating glass microelectrodes at a sampling rate of 40 kHz. A pseudo-electrocardiogram (ECG) was recorded using two electrodes consisting of Ag/AgCl half cells placed in the Tyrode's solution bathing the preparation, 1.0 to 1.5 cm from the two opposite sides of the atrial or ventricular coronary-perfused preparations. Conduction time was approximated by the duration of “P wave” in atria and “QRS complex” in ventricles, at a level representing 10% of “P wave” and “QRS” amplitude. Diastolic threshold of excitation (DTE) was determined by increasing stimulus intensity in 0.01 mA steps. Effective refractory period (ERP) was measured by delivering premature stimuli at progressively shorter S1-S2 intervals after every 10 basic beats at a pacing cycle length (CL) of 500 ms (5 ms steps; 2 times DTE). Post-repolarization refractoriness (PRR) was recognized when ERP exceeded action potential duration measured at 90% repolarization (APD90) in the ventricle and APD measured at 70% repolarization (APD70) in atria. Ventricular ERP was coincident with APD90, whereas atrial ERP was generally coincident with APD70-75.^9 The shortest S1-S1 permitting 1:1 activation was measured by progressively shortening pacing CL starting from a CL of 500 ms.
Stable AP recordings could not be readily obtained in the vigorously contracting perfused preparations. The largest recorded maximum rate of rise of the AP upstroke (Vmax) values per experimental condition were taken for statistical comparison. Only APs having amplitudes of at least 100 mV were considered in the analysis. The largest Vmax criterion was used because this was associated with the largest amplitude and the most negative resting membrane potential, depicting full or near full impalement. In determining use-dependent depression of Vmax, values were normalized to the Vmax value at a CL of 500 ms for each experiment and then averaged.
Because of their dependence on peak INa, Vmax, DTE, PRR, and conduction time as well the shortest S1-S1 interval permitting 1:1 activation are referred to as INa-dependent parameters.
The equilibration period for the coronary-perfused preparations was 30-120 min. The preparations were exposed to 5 μM ranolazine, 10 μM dronedarone (after 30 min washout of ranolazine), and the combination of these agents for at a period of at least 20 min. In time-control experiments, 20 minutes was sufficient to achieve steady-state in the effects of each of the drugs to alter electrophysiologic parameters. Recordings were obtained at a cycle length (CL) of 500 and 300 ms, unless otherwise indicated. […] When determining the shortest S1-S1 pacing rate permitting 1:1 activation, the stimulation intensity was DTE x 2, determined at a CL of 500 ms.

[2] = system: ACh-mediated persistent AF in isolated canine coronary-perfused right atria; test: Acetylcholine (ACh)-mediated persistent AF model in coronary-perfused right atria; conditions: for Termination Persistent AF: ACh 1 μM-mediated persistent AF; for Prevention of AF re-induction: after termination of ACh-mediated AF; for Reduction/suppression of persistent AF: canine perfused right atrial preparations; for Induction of Persistent AF: in presence of ACh 1 μM
Protocol: To assess the anti-AF potential of ranolazine, dronedarone, and their combination, we used an acetylcholine (ACh, 1.0 μM)-mediated AF model. In the presence of ACh, premature electrical stimulation (PES) or rapid pacing (CL=50-80 ms) induces persistent AF in 100% of canine coronary-perfused right atrial preparations.^9 The effect of the drugs was assessed to prevent (series 1) the induction of AF. In a separate set of preparations, the ability of these agents was evaluated to terminate (series 2) persistent AF. In the first series, ACh was added to the perfusate 20-30 min after the start of perfusion with 5 μM ranolazine, 10 μM dronedarone, or the combination of these agents. This was followed by attempts to induce the arrhythmia electrically. In the second series, the agents were added to the perfusate during ACh-mediated persistent AF (on the 5-6th minutes after the start of the arrhythmia). In cases in which the drug terminated AF, we attempted to re-induce the arrhythmia with rapid pacing.

[3] = system: canine pulmonary vein (PV) sleeve preparations; test: Superfused pulmonary vein (PV) sleeve preparations; conditions: ranolazine 5 μM; for Reduction in Vmax following change of rate: CL 5000 to 300 ms, dronedarone 10 μM (control 13%); for Diastolic threshold of excitation (DTE): CL of 300 ms, from 0.21±0.07; for Diastolic threshold of excitation (DTE) / Shortest pacing CL permitting a 1:1 response: dronedarone 10 μM; for Shortest pacing CL permitting a 1:1 response: untreated controls 116±8
Protocol: Pulmonary vein (PV) sleeve preparations (approximately 2.0×1.5 cm) were isolated from left canine atria. The thickness of the preparation was approximately 2 mm. […] The preparations were placed in a small tissue bath and superfused with Tyrode's solution of the following composition (mM): 129 NaCl, 4 KCl, 0.9 NaH2PO4, 20 NaHCO3, 1.8 CaCl2, 0.5 MgSO4, 5.5 glucose, buffered with 95% O2/5% CO2 (35±0.5° C.). The PV preparations were stimulated at a basic cycle length (BCL) of 1000 ms during the equilibration period (1 h) using electrical pulses (1-3 ms duration, 2.5 times diastolic threshold intensity) delivered through silver bipolar electrodes insulated except at the tips. Transmembrane potentials were recorded (at a sampling rate of 40 kHz) using glass microelectrodes filled with 3 M KCl (10-20 MΩ DC resistance) connected to a high input-impedance amplification system (World Precision Instruments, model KS-700, New Haven, Conn.). The following parameters were measured: DTE, Vmax, and shortest S1-S1 permitting 1:1 activation. Acetylcholine (ACh, 1 μM), isoproterenol (1 μM), high calcium or their combination were used to induce late phase 3 EADs, DADs and triggered activity.

[4] = system: ACh-mediated persistent AF in isolated canine coronary-perfused right atria; test: Acetylcholine (ACh)-mediated persistent AF model in coronary-perfused right atria; conditions: ranolazine 5 μM, dronedarone 10 μM; without ACh
[5] = 2x threshold stimulus intensity, without ACh, in ms (unit assumed)
[6] = ranolazine 5 μM, dronedarone 10 μM

SMILES: COc1ccccc1OCC(O)CN1CCN(CC(=O)Nc2c(C)cccc2C)CC1 (racemic) [Ranolazine, (±)-N-(2,6-dimethylphenyl)-4-[2-hydroxy-3-(2-methoxyphenoxy)-propyl]-1-piperazineacetamide]
- Shortest S1-S1 (shortest CL permitting 1:1 activation) [1, 5]: 201 ± 22
- Shortest S1-S1 (shortest CL permitting 1:1 activation) ([1]; in presence of ACh 1 μM): 94 ± 11
- APD90 ([1]; in presence of ACh 1 μM): 52 ± 6 ms
- ERP ([1]; in presence of ACh 1 μM): 72 ± 13 ms
- APD90 ([1]; without ACh): 210 ± 10 ms
- ERP ([1]; without ACh): 181 ± 11 ms
- Termination Persistent AF [2, 6]: 20%
- Prevention of AF re-induction [2, 6]: 100%
- Reduction/suppression of persistent AF [2]: 29%
- Induction of Persistent AF [2, 6]: 71%
- Prevention of induction of sustained/persistent AF (atria) ([2]; pretreatment, then ACh 1 μM, ranolazine 5 μM, dronedarone 10 μM): 2/7
- Reduction in Vmax following change of rate [3]: 19%
- Diastolic threshold of excitation (DTE) [3]: 0.24±0.09 mA
- Shortest pacing CL permitting a 1:1 response [3]: 121 ± 13 ms
- Induction of Persistent AF [4]: 0%

SMILES: CCCCc1oc2ccc(NS(C)(=O)=O)cc2c1C(=O)c1ccc(OCCCN(CCCC)CCCC)cc1 [Dronedarone, N-(2-Butyl-3-(p-(3-(dibutylamino)propoxy)benzoyl)-5-benzofuranyl)methanesulfonamide]
- Shortest S1-S1 (shortest CL permitting 1:1 activation) [1, 5]: 147 ± 11
- Prolongation of atrial ERP ([1]; current in vitro investigation): 9%
- Shortest S1-S1 (shortest CL permitting 1:1 activation) ([1]; in presence of ACh 1 μM): 88 ± 13
- APD90 ([1]; in presence of ACh 1 μM): 45 ± 5 ms
- ERP ([1]; in presence of ACh 1 μM): 59 ± 7 ms
- APD90 ([1]; without ACh): 202 ± 9 ms
- ERP ([1]; without ACh): 171 ± 11 ms
- Termination Persistent AF [2, 6]: 17%
- Prevention of AF re-induction [2, 6]: 0%
- Reduction/suppression of persistent AF [2]: 17%
- Induction of Persistent AF [2, 6]: 83%
- Reduction in Vmax following change of rate [3]: 20%
- Diastolic threshold of excitation (DTE) [3]: 0.26±0.09 mA
- Shortest pacing CL permitting a 1:1 response [3]: 120 ± 12 ms
- Induction of Persistent AF [4]: 0%
